Experimental data taken from the NIST ThermoML archive (doi:10.1021/acs.jced.7b00904).
± gives the expanded uncertainty stated by the source.

Assay: wn = mass fraction of the nth substance listed
Details: 295 K; for surface tension liquid-gas: Wilhelmi plate; for mass density / viscosity: 101.3 kPa, Liquid; for mass density: Buoyancy - hydrostatic balance; for viscosity: Concentric cylinders viscometry

N#C[S-].[K+] [potassium thiocyanate] + O
Details	mass density [kg/m3]	surface tension liquid-gas [mN/m]	viscosity [mPa·s]
w1 = 0.03	1013 ± 6	67.25 ± 1.1	0.834 ± 0.07
w1 = 0.05	1022 ± 6	61.98 ± 5.4	0.845 ± 0.07
w1 = 0.07	1031 ± 6	58.59 ± 13	0.825 ± 0.07
w1 = 0.1	1047 ± 6	57.2 ± 13	0.843 ± 0.07
w1 = 0.2	1100 ± 6	57.79 ± 4.6	0.881 ± 0.07
w1 = 0.3	1157 ± 6	–	0.916 ± 0.07
w1 = 0.4	1218 ± 6	55.45 ± 5.8	1.101 ± 0.07
w1 = 0.5	1283 ± 6	56.47 ± 5.4	1.321 ± 0.071
w1 = 0.6	1353 ± 6	62.93 ± 3.9	1.979 ± 0.071
w1 = 0.65	1392 ± 6	73.26 ± 1.2	2.588 ± 0.073
w1 = 0.68	1414 ± 6	74.62 ± 1.2	3.125 ± 0.074
